Assay [1] relates to Aggregatibacter actinomycetemcomitans. The assay can be described thus: Growth inhibition (OD610), single culture. The following applies: Aggregatibacter actinomycetemcomitans. In kind it is cell-based. As for the experimental part:
(§1) Single species of Streptococcus gordonii (S. gordonii, S.g) strain V288 (ATCC #35105), Streptococcus sobrinus (S. sobrinus, S.$) strain SL1[CCM 6070, CNCTC 9/89] (ATCC #33478), or Aggregatibacter actinomycetemcomitans were analyzed. Also, a mixed culture containing Actinomyces viscosus (A. viscosus, A.v) strain (ATCC, #43146), Lactobacillus casei (L. casei, L.c) strain (ATCC #334), Streptococcus oralis (S. oralis, S. o) strain (ATCC #35037), Fusobacterium nucleatum (F. nucleatum, F. n) strain (ATCC #10953), and Veilonella parvula (V. parvula, V. p) strain (ATCC #17745) was also analyzed for growth inhibition/toxicity activity. Bacteria were cultured overnight in approximately 20 ml of BHI broth (BD, cat #237500) or maintained in a specialized complex modified BHI II medium in a continuous culture chemostat at 37° C. respectively. The following day, the OD610 were determined and solutions diluted to an OD610 of 0.2 or 0.1 respectively for the assay.
(§2) Triclosan (positive control) was prepared as a 10% stock in 100% EtOH and 3 fold serial dilutions were performed in 100% EtOH. An appropriate amount of the diluted samples was then transferred into a 96 well clear plate such that the resulting final concentration of the test samples ranged from either a 2 mM or 4 mM (highest concentration) to 0.0078 mM or 0.0156 mM (lowest concentration respectively) in 2% DMSO in 100 μl media per well. Triclosan (TCN) ranged from 0.01% to 1.67e-6% in 1% EtOH. For Zinc acetate, in order to mimic the 2:1 molar ratio (ligand:Zinc) in the Naringin:Zinc complex, the final concentration ranged from 0.7 mM to 0.0027 mM for samples with 2 mM as the highest concentration and 1.33 mM to […] for samples with 4 mM as the highest concentration in 2% DMSO. Next, 100 μl of bacterial culture at OD610 0.2 were introduced to the wells with the test samples. The wells were thoroughly mixed and incubated at 37° C. overnight. The plates were read using an Envision plate reader (PerkinElmer, Waltham, Mass.) at 610 nm.
(§3) The IC50 for the complex, Product 5, was determined for Streptococcus gordonii (S. gordonii), Streptococcus sobrinus (S. sobrinus), Aggregatibacter actinomycetemcomitans (A. actinomycetemcomitans), and also for the mixed bacterial culture. […] Triclosan (TCN) was included as a positive control for bacterial inhibition.
(§4) Further characterization was performed on planktonic oral microbes; Streptococcus sobrinus (Cariongenic—strain-SL1[CCM 6070, CNCTC 9/89] (ATCC cat. #33478), Streptococcus gordonii (Arginolytic—strain V288 (ATCC cat. #35105), Actinomyces viscosus) as well late colonizer (Gram −), pathogenic Aggregatibacter actinomycetemcomitans. All microbes were grown in their respective culture media: Streptococcus sobrinus and Streptococcus gordonii in BHI broth (BD, cat #237500), Aggregatibacter actinomycetemcomitans in BHI broth supplemented with 0.5% Yeast Extract (BD, cat #210941) and Actinomyces viscosus in Trypticase Soy Broth (BD, cat #211768) supplemented with 0.5% Yeast Extract (BD, cat #210941). Bacteria were cultured overnight in 37° C., 5% CO2 in approximately 20 ml of the appropriate culture broth. The following day, the OD610 was determined and solutions were diluted to 0.2 for the assay.
(§5) Triclosan (positive control) was prepared as a 10% stock in 100% EtOH and 3 fold serial dilutions were done in 100% EtOH. […] For Naringin+Zinc combination, while the highest total overall concentration was 2 mM, the exact concentration was Naringin (1.3 mM) and Zinc Acetate (0.7 mM) due to the compositions 2:1 molar ratio. For Zinc Acetate, in order to mimic the 2:1 ratio (ligand:Zinc) composition as in the complex, the final concentration ranged from 0.7 mM to 0.0027 mM in 2% DMSO.
(§6) A 100 μl aliquot of bacterial culture at OD610 0.2 were introduced to the wells with the test samples. The wells were thoroughly mixed and plates incubated overnight in a 37° C. incubator with or without 5% CO2 depending upon the bacterial species.

For another assay, the system named is Streptococcus gordonii. Put plainly: Growth inhibition (OD610), single culture. Format: cell-based. The note with it: Streptococcus gordonii. As for the experimental part:
as §1, §2, §3, §4, §5, §6

The next assay deals with Streptococcus sobrinus. The assay can be described thus: Growth inhibition (OD610), single culture. In kind it is cell-based. The note with it: Streptococcus sobrinus. As for the experimental part:
as §1, §2, §3, §4, §5, §6

Assay [2] has as its system planktonic oral bacterial species (S. sobrinus, S. gordonii, A. actinomycetemcomitans, A. viscosus, mixed cultures). Put plainly: Growth inhibition, summary statements over the single, co- and mixed cultures tested. Format: cell-based, oral bacteria. As for the experimental part:
as §1, §2, §3, §4, §5, §6

Assay [3] can be described thus: Growth inhibition (OD610), mixed chemostat culture. Format: cell-based, A. viscosus, L. casei, S. oralis, F. nucleatum, V. parvula. As for the experimental part: as §1, §2, §3
(§7) Antimicrobial characterization was also performed on mixed culture solutions having at least five microbial species present. A mixed culture containing Actinomyces viscosus (A. viscosus, A.v) (ATCC, #43146), Lactobacillus casei (L. casei, L.c) (ATCC #334), Streptococcus oralis (S. oralis, S.o) (ATCC #35037), Fusobacterium nucleatum (F. nucleatum, F.n) (ATCC #10953) and Veilonella parvula (V. parvula, V.p) (ATCC #17745) was maintained in a specialized complex medium (Modified BHI II Medium) in a continuous culture chemostat at 37° C. Approximately 10 ml of the culture was removed and the OD610 was determined. The assay was performed using cultures at two concentrations; 0.03 and 0.1 at OD610. […] Triclosan (positive control) was prepared as a 10% stock in 100% EtOH and 3 fold serial dilutions were performed in 100% EtOH. […] For Zinc Acetate, in order to mimic the 2:1 ratio (ligand:Zinc) composition as in the complex, the final concentration range from 0.7 mM to 0.0027 mM in 2% DMSO was used instead.
(§8) A 100 μl of bacterial culture at chosen OD610 (0.03 or 0.1) was introduced into the wells with the test samples. The wells were thoroughly mixed and plates incubated overnight in a 37° C. incubator with or without 5% CO2. After approximately 12-13 hours of treatment, the plate was read using Envision plate reader (Serial #1040984), absorbance at 610 nm. The % inhibition relative to control was determined as described for previously described antimicrobial protocols, supra.

In assay [4] the test system is mixed culture containing Actinomyces viscosus, Lactobacillus casei, Streptococcus oralis, Fusobacterium nucleatum and Veilonella parvula. Put plainly: Growth inhibition (OD610), mixed chemostat culture. The note with it: mixed species cultures; 1% EtOH; data not shown. Format: cell-based, A. viscosus, L. casei, S. oralis, F. nucleatum, V. parvula. As to the method: as §1, §2, §3, §7, §8

Turning to `Oc1cc(Cl)ccc1Oc1ccc(Cl)cc1Cl` [TCN, Triclosan], the IC50 is 0.61 ± 0.46 µM in assay [1]; 6 ± 0.85 µM in the assay with Streptococcus gordonii; 6 ± 1.7 µM in the assay on Streptococcus sobrinus; 0.61 to 7.6 µM in assay [2] (read-out: concentration that inhibited 50% of the bacterial growth (IC50), range over cultures tested); 7.6 µM in assay [3] (Mixed Species (aerobic)); 4.8 µM in assay [3] (Mixed Species (anaerobic)). In addition, in assay [2] (S. sobrinus, S. gordonii, A. actinomycetemcomitans and mixed chemostat cultures), the “IC50 range over cultures tested, corresponding ppm” value was 0.18-2.2 ppm. Moreover, the “IC50 of positive control, range in ppm” value is given as 1-2.7 ppm in assay [2] (same species of bacteria cultures (single and co-cultures), 1% EtOH); 1.4-2.2 ppm in assay [4].

Values taken from patent publication US10548829B2, “Oral care compositions and methods of use” (priority 2016, dated 2020).
